Read-outs that look alike come from different tables or passages of the source.

One data set has as its system H. pylori SS1 strain. Kind of data set: MIC by broth microdilution and FICI of 1:1 combinations, strain SS1. The settings on record: Helicobacter pylori, SS1STRAIN, 72 h, combinations 1:1 w/w given as inhibitor a/inhibitor b. It counts as cell-based. The method, then: (§1) Minimal inhibitory concentration of inhibitors was determined by an in vitro broth microdilution assay (Knezevic et al. [2018]). Briefly, double-strength Brain heart infusion broth (BHI) was supplemented with yeast extract (2.5%), horse serum (5%), and IsoVitaleX (1%). In each well, twofold serial dilutions of inhibitors (from 1000 µg/mL to 7.8 μg/mL in a final volume) and an equal volume of inoculated double-strength BHI were added (approx. 1 × 10^6 CFU/mL in final volume). Amoxicillin was used as a positive control, and distilled water as a negative control. The microtiter plates were incubated at 37 °C under microaerobic conditions in moist atmosphere for 3 days. […] During the incubation, in wells with viable H. pylori urease produced by the bacteria converted urea into ammonia and carbon dioxide, changing the pH and color of a phenol red indicator in the medium (from orange to purple). The plates were examined visually for color change and OD560 was measured after 4 h in order to determine presence/absence of growth. The MIC is defined as the lowest concentration of a compound that inhibits visible growth, compared with the growth in the controls (in this case defined as presence/absence of color change). All experiments were performed in duplicate and in 3–6 independent tests.
(§2) In order to determine possible additive or even synergistic effect of inhibitors, a method with calculation of the fractional inhibitory concentration index (FICI) was used (Pillai et al, [2005]). A combination of two inhibitors was applied (w/w 1:1) in the final concentration 1 mg/mL and subsequently diluted. The FICI index was calculated as FICI = (MICA/MICa) + (MICB/MICb), where MICA = concentration of inhibitor a in combination with inhibitor b; MICa = MIC of inhibitor a, applied as a single agent; MICB = concentration of inhibitor b in combination with inhibitor a; and MICb = MIC of inhibitor b applied as a single agent. The results were interpreted as a synergistic effect if the FICI was ≤ 0.5; as an additive effect if 0.5 < FICI ≤ 1; an indifferent effect if 1 < FICI ≤ 4; and as an antagonistic effect if the FICI was > 4 (Pillai et al. [2005]).
For orientation: In broth dilution the organism is exposed to a series of concentrations in liquid medium.

In another data set the test system is E. coli PNP. On the set-up: method as in Bzowska et al. [1992]. Particulars: ref Bzowska et al. [1992]; cited from earlier work.
Data set [1] can be described thus: pKa values and ionic form at pH 7. It counts as physicochemical. The source says:
Table 3 Partition coefficients of the neutral and ionized forms, and pKa values of the tested compounds, and of metronidazole used as a control in the cellular uptake studies. Partition coefficients of the ionic forms observed at pH 7 are marked bold | column: Ionic form at pH 7

The conditions of data set [2]: ref Giziewicz and Shugar [1977], Wierzchowski and Shugar [1982], Bzowska et al. [1992] (formycins), Gottlieb and Shaw [2013] (hadacidin), cited from earlier work; for pKa (first value): Hellgren et al. [1995] (metronidazole).
Data set [3] concerns H. pylori 26695 strain cells. Briefly: Cellular uptake (accumulation test), LC–MS detection. It counts as cell-based. The procedure: Formycin A, formycin B, and metronidazole were quantified through the ultra-performance liquid chromatography–tandem mass spectrometry. Samples were analyzed on Waters Xevo TQ-S with a standard ESI ion source coupled to Waters Acquity I-class UPLC.
Calibration samples were prepared by spiking blank growth medium F12 by the tested inhibitor, formycin A, formycin B, or metronidazole solutions. Internal standards (IS) were used to improve the accuracy of the method. To each pipetted sample from a particular experiment, the same amount of IS was added. As a detector response, we considered the ratio of the analyte peak area (variable) to the internal standard peak area (constant). This allows compensation for signal changes due to a possible instability of the ion source. If the ionization efficiency changes, both compounds are affected, but the surface peak ratio is maintained. […] Samples and calibrators were precipitated using IS solution and injected on the instrument.
Calibration curves were acquired by plotting the concentration of the standards against the ratio of the analyte peak area to the IS peak area. The calibration curve for FA in low concentration (35 μM) consisted of 7 samples in the range from 0.23 to 37.5 μM (R^2 = 0.997); for FA in high concentration (350 μM), the curve consisted of 6 samples in the range from 3.7 to 374.7 μM (R^2 = 0.995); for FB in low concentration (35 μM), the curve consisted of 7 samples in the range from 0.291 to 46.5 μM (R^2 = 0.999); for FB in high concentration (350 μM), the curve consisted of 7 samples in the range from 2.91 to 465.0 μM (R^2 = 0.999); and for MTZ (0.5 μM), the calibration curve was 8 samples in the range from 0.584 to 584.2 nM (R^2 = 0.995).
Chromatography was run on Waters Acquity BEH C18, 1.7 μm, 2.1 mm × 50 mm analytical column thermostated at 70 °C. The separations were done using 2.5 min gradient method. Phase A was 0.1% formic acid in MilliQ water; phase B was 0.1% formic acid in acetonitrile. For formycins the gradient started at 5% B and increased linearly to 50% B in 1.6 min; at 1.8 min it returned to the starting condition for column equilibration. For metronidazole the gradient started at 5% B and increased linearly to 50% B in 1.3 min; at 2.0 min it returned to the starting condition for column equilibration. The flow rate was 600 μL/min in both methods. The retention time of FA was 0.42 min, FB was 0.45 min (see Fig. 4a, b), and MTZ 0.88 min.

The target of data set [4] is T1, purine nucleoside phosphorylase (PNP) from H. pylori 26695 strain (Helicobacter pylori, UniProt P56463). Further details: made in house; method as in Narczyk et al. [2018]. Particulars: H. pylori 26695 strain PNP; ref Narczyk et al. [2018]; cited from earlier work.
For data set [5], the system named is H. pylori 26695 strain cells. Kind of data set: Cellular uptake (accumulation test), UV absorption detection. The settings on record: 8 h.
Procedure: Cellular uptake of PNP inhibitors, formycin A (FA) and formycin B (FB), and the control compound, metronidazole (MTZ), was determined using the approach described by Zhou et al. ([2015]) for E. coli and Pseudomonas aeruginosa, adapted to conditions suitable for H. pylori cell growth. This method measures the change of extracellular drug concentration using LC–MS detection.
Overnight cultures of H. pylori wild-type 26695 strain were grown by shaking (120 rpm) at 37 °C under microaerophilic conditions (5% O2, 10% CO2, 85% N2) in BHI medium (37 g/L) supplemented with 10% Fetal Bovine Serum and 1% Helicobacter pylori Selective Supplement. Cells were collected by centrifugation (5 min at 8000 × g at room temperature). The supernatant was decanted and the cell pellets were suspended in F12 medium (with L-glutamine and sodium bicarbonate) and centrifuged again. The supernatant was decanted again and cell pellets were resuspended in such a volume of F12 medium to obtain an OD600 of 4.0. F12 medium was selected for experiments because it is a minimal medium of defined composition and is suitable for measurements on MS.
(§3) The accumulation test was carried out in 24-deep-well 2 mL flat-bottomed plates, all in a final volume of 1 mL. Three types of samples were used, generated by mixing the following components in a 1:1 ratio: (1) concentrated and resuspended cells in F12 medium, (2) a solution of the appropriate concentration of a test compound in F12 medium, (3) F12 medium.
The final concentrations of the tested compounds were 350 µM and 35 µM for formycin A and formycin B, and 35 μM for hadacidin. One set of three replicate samples was incubated at 37 °C, and the other set was incubated at 4 °C. Samples were taken at the start of the accumulation test, to check the concentration of the inhibitor at the start (named “Inhibitor_start,” “H. pylori + inhibitor_start”), then after 4 and 8 h of incubation at both temperatures. The obtained samples were centrifuged at 8000 × g for 5 min at 4 °C. The supernatant was collected for the LC–MS analysis (used for MTZ, FA, and FB uptake), UV absorption measurements (used for FA and FB uptake), and AdSS and PNP inhibition analysis (used for Hada and FB uptake).
For cellular uptake of formycin A and formycin B, UV absorption was additionally used as a detection method. […] Nevertheless, there is some overlap between these spectra, and because of that, selective observation of formycins absorption is not possible. Moreover, during the cellular uptake experiment, H. pylori cells may take some UV absorbing nutrients from the medium, as well as release some metabolic products that also absorb in the UV region. Therefore, in the cellular uptake experiment, correction for absorption caused by these processes was introduced by including samples containing just H. pylori cells in F12 medium, incubated for 4 and 8 h at both temperatures, and subtracting absorption spectra of such supernatants.
Samples in this case were the same as those evaluated by the LC–MS detection and by analysis of the inhibition of the PNP activity. The UV spectra of the supernatants, from experiments with 350 μM and at 35 μM inhibitor concentration, diluted with water 10 times and 2 times, respectively (with the absorbance of F12 medium, 10 times or 2 times diluted with water, as a reference), were measured. The absorbance at the most suitable wavelengths was used to calculate the formycin concentration. […]
Data set [6] relates to H. pylori ATCC 26695 strain. Kind of data set: MIC by broth microdilution and FICI of 1:1 combinations, strain 26695. Particulars: Helicobacter pylori, ATCC26695, 72 h, combinations 1:1 w/w given as inhibitor a/inhibitor b. It is filed as cell-based. The method, then:
as §1, §2

Data set [7] concerns H. pylori 26695 strain cells. Briefly: Cellular uptake (accumulation test), detection by inhibition of the target enzyme (AdSS or PNP). It is filed as cell-based. The settings on record: 8 h.
Procedure: Overnight cultures of H. pylori wild-type 26695 strain were grown by shaking (120 rpm) at 37 °C under microaerophilic conditions (5% O2, 10% CO2, 85% N2) in BHI medium (37 g/L) supplemented with 10% Fetal Bovine Serum and 1% Helicobacter pylori Selective Supplement. Cells were collected by centrifugation (5 min at 8000 × g at room temperature). The supernatant was decanted and the cell pellets were suspended in F12 medium (with L-glutamine and sodium bicarbonate) and centrifuged again. The supernatant was decanted again and cell pellets were resuspended in such a volume of F12 medium to obtain an OD600 of 4.0.
as §3
The final concentrations of the tested compounds were 350 µM and 35 µM for formycin A and formycin B, and 35 μM for hadacidin. One set of three replicate samples was incubated at 37 °C, and the other set was incubated at 4 °C. […]
where Km and Vmax are the Michaelis constant and maximal velocity, respectively, and Ki is the inhibition constant of the tested inhibitor, in our case hadacidin. […] These values, together with velocity measured for any tested supernatant, Cinhibitor_start , and velocity measured when only F12 medium is present, v, are sufficient to determine inhibitor concentration, Ctested , present in a tested supernatant, using Eq. (4), which is obtained by the rearrangement of Eq. (2) and Eq. (3):4 Ctested=Cinhibitor_start1/vtested-1/v/1/vinhibitor_start-1/v
The formycin B uptake was studied in the same way, but instead of AdSS, PNP was used, since it is the target enzyme for this inhibitor. […] Specific activity is expressed as units per mg of protein (U/mg).
Data set [8] deals with T1, purine nucleoside phosphorylase (PNP) from H. pylori 26695 strain. Briefly: biochemical.
Procedure: (§4) Kinetic experiments with PNP, and also with AdSS, described in the section “AdSS and PNP inhibition detection of cellular uptake”, were performed on a double-beam UV/VIS spectrophotometer Cary 100, with thermostated Peltier cell holders (Varian: Agilent Technologies, Mulgrave, Vic., Australia). The inhibition constant was determined as the adjustable parameter in the global fitting of the competitive inhibition model to all data obtained, using the GraphPad Prism program (GraphPad Software, San Diego, CA, USA).
Data set [9] deals with adenylosuccinate synthetase (AdSS) from H. pylori 26695 strain. On the set-up: method as in Bubić et al. [2018]. Particulars: H. pylori 26695 strain AdSS; ref Bubić et al. [2018]; cited from earlier work.
Data set [10] has as its target T1, purine nucleoside phosphorylase (PNP) from H. pylori 26695 strain. Particulars: m^7Guo as variable substrate, global fit, 25 °C, pH 7.0, 50 mM phosphate.
Procedure: as §4
A further data set relates to P. falciparum PNP. Further details: method as in Dziekan et al. [2019]. Particulars: solution studies; ref Dziekan et al. [2019]; cited from earlier work.
The mark [11] stands for this setting: H. pylori SS1, geometrical mean of repetitions.
[12] abbreviates: starting concentration 35 µM, LC–MS, 8 h incubation, Eq. (1).
Setting [13] is: starting concentration 350 µM, LC–MS, 8 h incubation, Eq. (1).
The mark [14] stands for this setting: starting concentration 350 µM, UV absorption at 294 nm.
[15] abbreviates: H. pylori ATCC 26695, geometrical mean of repetitions.

T1 sequence (P56463 whole entry): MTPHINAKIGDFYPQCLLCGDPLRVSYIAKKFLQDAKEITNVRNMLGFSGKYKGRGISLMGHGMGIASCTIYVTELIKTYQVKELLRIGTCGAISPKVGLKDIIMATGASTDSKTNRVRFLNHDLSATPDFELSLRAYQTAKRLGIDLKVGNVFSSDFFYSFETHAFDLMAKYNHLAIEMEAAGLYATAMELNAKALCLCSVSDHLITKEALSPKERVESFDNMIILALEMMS

With `Nc1ncnc2c([C@@H]3O[C@H](CO)[C@@H](O)[C@H]3O)n[nH]c12` [Formycin A], the minimum inhibitory concentration (MIC) in the data set on H. pylori SS1 strain (setting [11]) is above 1000 µg/mL; in the data set with H. pylori SS1 strain (H. pylori SS1), above 3.5 mM; in data set [6] (setting [15]), at least 870 µg/mL; in data set [6] (H. pylori ATCC 26695), at least 3.1 mM. The inhibitory constant (Ki) in the data set on E. coli PNP is 5.3 ± 0.4 µM; in data set [4], 14 ± 1.7 µM. For the same compound, in data set [1], the “Ionic form at pH 7” value is listed as “Neutral”. Further, the “pKa (first value)” value in [2] was 4.6. In addition, the “pKa” value in data set [2] was 9.7. For the same compound, the Intracellular accumulation is given as 15.9 ± 0.5 µM in [3] (setting [12]); 29.5 ± 5.3 µM in data set [3] (setting [13]); “up to 29.5 ± 5.3 µM” in data set [3] (starting concentration 350 µM, LC–MS, 8 h incubation, Eq. (1), listed as formycin A); 6.7 ± 0.6 µM in data set [5] (starting concentration 35 µM, UV absorption at 305 nm); 35.2 ± 7.1 µM in [5] (setting [14]); 22.2 ± 7.6 µM in [5] (starting concentration 350 µM, UV absorption at 305 nm, Eq. (1), no correction for metabolites).
For `O=c1[nH]cnc2c([C@@H]3O[C@H](CO)[C@@H](O)[C@H]3O)n[nH]c12` [Formycin B], the MIC with H. pylori SS1 strain (setting [11]) is at least 397 µg/mL; in the data set with H. pylori SS1 strain (H. pylori SS1) it was at least 1.5 mM; in data set [6] (setting [15]), above 1000 µg/mL; in data set [6] (H. pylori ATCC 26695), above 3.7 mM. The “Ionic form at pH 7” value in data set [1] was “Neutral”. Also, the “pKa (first value)” value in data set [2] was 0.9. Further, the “pKa” value in data set [2] is recorded as 8.6. The Intracellular accumulation in data set [3] (setting [12]) was 2.5 ± 0.5 µM; in data set [3] (setting [13]) it was 7.1 ± 2.5 µM; in [3] (starting concentration 350 µM, LC–MS, 8 h incubation, Eq. (1), listed as formycin B), “up to 7.1 ± 2.5 µM”; in data set [7] (starting concentration 350 µM, PNP inhibition detection), 20.2 ± 34.0 µM; in [5] (starting concentration 350 µM, UV absorption at 279 nm) it was 3.0 ± 9.2 µM; in [5] (setting [14]) it was 1.0 ± 7.4 µM. The Ki in [8] turned out to be 0.96 ± 0.08 µM.
For the compound `O=CN(O)CC(=O)O` [Hadacidin], the minimum inhibitory concentration (MIC) was above 1000 µg/mL in the data set with H. pylori SS1 strain (setting [11]), above 8.4 mM with H. pylori SS1 strain (H. pylori SS1), above 1000 µg/mL in [6] (setting [15]) and above 8.4 mM in [6] (H. pylori ATCC 26695). Besides, the “Ionic form at pH 7” value in data set [1] is given as “Anion”. Also, the “pKa (first value)” value in data set [2] was 3.5. The “pKa” value in data set [2] is 9.4. Also, the Ki in data set [9] was 0.19 ± 0.02 µM. Also, the Intracellular accumulation in [7] (starting concentration 35 µM, AdSS inhibition detection) is given as 4.9 ± 4.1 µM; in data set [7] (starting concentration 35 µM, AdSS inhibition detection, listed as hadacidin) it was “does not enter H. pylori cells”.
Consider `Cc1ncc([N+](=O)[O-])n1CCO` [Metronidazole], for which the “Ionic form at pH 7” value in [1] is “Neutral”. Further, in [3] (Helicobacter pylori, 8 h, 0.5 µM), the Intracellular accumulation is recorded as 0.37 ± 0.01 µM.
`C[n+]1cn([C@@H]2O[C@H](CO)[C@@H](O)[C@H]2O)c2nc(N)[nH]c(=O)c21` [m^7Guo, 7-Methylguanosine]: in data set [10], the Michaelis-Menten constant (Km) is 0.0463 ± 0.0044 mM and the Vmax amounted to 12.5 ± 0.5 µmol/min/mg.
With `C=C[C@H]1C[N@@]2CC[C@H]1C[C@H]2[C@H](O)c1ccnc2ccc(OC)cc12` [quinine], the “Binding affinity to P. falciparum PNP” value with P. falciparum PNP is “low nanomolar affinity”.

For orientation: MIC means the smallest concentration in the dilution series that meets the test's criterion for growth inhibition. In general, Ki refers to the dissociation constant of the complex between target and ligand, obtained from inhibition or displacement. As usually defined, the pKa is the pH at which an ionisable group is half protonated. The term Km denotes the concentration of substrate that gives half-maximal velocity. As a reminder, the Vmax is the rate approached at saturating substrate.

Source of the values: paper PMC8502122, “A comprehensive method for determining cellular uptake of purine nucleoside phosphorylase and adenylosuccinate synthetase inhibitors by H. pylori” (Applied Microbiology and Biotechnology, 2021).
